Measurements reported in patent US20230391826A1, “COMPOSITIONS AND METHODS FOR TREATING DISEASES” (Sanford Burnham Prebys Medical Discovery Institute, priority 2020, published 2023).
Values after ≈ are worked out from the molar mass of the structure shown. Read-outs that look alike come from different tables or passages of the source.

Key:
EphA2 LBD = molecular target: T1, EphA2 LBD (Homo sapiens, UniProt P29317); test: Isothermal titration calorimetry (ITC) with soluble EphA2 LBD; type: binding
T1 construct: made in house; host or cells: E. coli Origami 2(DE3)
Protocol: (FIG. 10A-10E) The EphA2 LBD was titrated at 200-250 μM into 10-12.5 μM of the indicated peptide.
For ITC, all peptides are dissolved in DMSO and both the EphA2 LBD and the peptides are diluted to obtain a final buffer containing 9.5 mM HEPES, pH 7.9, 95 mM NaCl, and 5% DMSO. The experiments are carried out at 296 K (23° C.) using an ITC200 calorimeter (Microcal). Two-microliter aliquots of a peptide solution are injected into the cell containing 205 μL EphA2 LBD. 200-400 μM peptides are titrated into 20-40 μM EphA2 LBD. Experimental data are analyzed using the Origin software package (Microcal). The integrated values for the reaction heats are normalized to the amount of injected peptide after blank subtraction.

[1] = Peptide solubility in PBS/H2O/DMSO; type: physicochemical
Protocol: Peptide identity and purity are documented by mass spectrometry and high-performance liquid chromatography (HPLC). The peptide solubility values are determined. Concentrated peptide stocks are prepared in DMSO or H2O and stored frozen at −80° C.

other Eph receptors = test: ELISA selectivity: ephrinA5-AP binding to EphA receptors and ephrinB2-AP binding to EphB receptors; settings: peptide at ~100-fold its IC50
Text: FIG. 1A-1C illustrates an example of Potency and selectivity of EphA2-targeting dimeric peptides. (FIG. 1A) ELISAs comparing the ability of the peptides to inhibit binding of ephrin-A5 fused to alkaline phosphatase (ephrinA5-AP) to the immobilized EphA2 extracellular domain fused to the Fc portion of an antibody (EphA2-Fc). The graphs show averages ±SD from triplicate measurements from a representative experiment. IC50 values calculated from the fitted curves in each experiment are shown. Averages of IC50 values obtained from multiple experiments are shown in panel FIG. 1B and Table 3. The 10 nM peptide concentration is outlined in red. (FIG. 1B) Plot of the average IC50 values (listed in Table 3) for different ligands. […] (FIG. 1C) EphrinA5-AP binding to EphA receptors and ephrinB2-AP binding to EphB receptors in the presence of dimeric peptides representing each of the three configurations. Values are normalized to ephrin binding without peptide. The graphs show averages and SDs from triplicate measurements (with each measurement shown as a dot).
An important feature of the original YSA peptide and its monomeric derivatives is that they specifically bind to EphA2, whereas the ephrinA ligands promiscuously binds to all EphA receptors (9, 31, 37, 53). […]

EphA2 = EphA2 (Homo sapiens, UniProt P29317); test: Quantitative FRET of EphA2 oligomerization in transiently transfected HEK293 cells; type: cell-based; design: expressed in transfected cells; host or cells: HEK293 (HEK293T), transient transfection
Text: FIG. 4A-4E illustrates an example where dimers with different configurations induce EphA2 oligomerization and patching on the cell surface. (FIG. 4A-4D) Oligomerization curves comparing EphA2 WT and the G131Y and L223R/L254R/[…] interface mutants transiently expressed in HEK293 cells and treated with saturating concentrations of C-terminally linked dimer (2) or N-terminally linked dimer (5). The curves were obtained by fitting quantitative FRET data to monomer-oligomer models. […] Curves for higher order oligomerization are steeper than dimerization curves. (FIG. 4E) Two-photon integrated fluorescence images of HEK293 cells expressing EphA2-EYFP and EphA2-mTURQ and under hypo-osmotic conditions. The plasma membrane regions in the rectangular yellow outlines are enlarged in the insets at the bottom of each panel. […]
To examine the effects of dimeric peptide ligands on EphA2 oligomerization (including dimerization and higher order clustering), quantitative FRET experiments were performed in live cells. […] FRET is then measured in hundreds of individual cells with different EphA2 expression levels (FIG. 12), and the data are combined to yield average oligomeric fractions at different EphA2 concentrations (FIG. 4A-4D). […]
To obtain the data points for oligomerization curves (FIG. 12), the concentration of EphA2 in each small region of plasma membrane in which FRET efficiency was measured. […]

T1 sequence (P29317 28-200): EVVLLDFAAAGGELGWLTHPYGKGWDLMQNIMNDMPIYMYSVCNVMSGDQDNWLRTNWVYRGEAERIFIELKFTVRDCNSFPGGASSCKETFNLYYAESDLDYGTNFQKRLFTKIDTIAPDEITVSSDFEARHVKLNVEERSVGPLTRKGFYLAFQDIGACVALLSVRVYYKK
EphA2, sequence (P29317 24-976): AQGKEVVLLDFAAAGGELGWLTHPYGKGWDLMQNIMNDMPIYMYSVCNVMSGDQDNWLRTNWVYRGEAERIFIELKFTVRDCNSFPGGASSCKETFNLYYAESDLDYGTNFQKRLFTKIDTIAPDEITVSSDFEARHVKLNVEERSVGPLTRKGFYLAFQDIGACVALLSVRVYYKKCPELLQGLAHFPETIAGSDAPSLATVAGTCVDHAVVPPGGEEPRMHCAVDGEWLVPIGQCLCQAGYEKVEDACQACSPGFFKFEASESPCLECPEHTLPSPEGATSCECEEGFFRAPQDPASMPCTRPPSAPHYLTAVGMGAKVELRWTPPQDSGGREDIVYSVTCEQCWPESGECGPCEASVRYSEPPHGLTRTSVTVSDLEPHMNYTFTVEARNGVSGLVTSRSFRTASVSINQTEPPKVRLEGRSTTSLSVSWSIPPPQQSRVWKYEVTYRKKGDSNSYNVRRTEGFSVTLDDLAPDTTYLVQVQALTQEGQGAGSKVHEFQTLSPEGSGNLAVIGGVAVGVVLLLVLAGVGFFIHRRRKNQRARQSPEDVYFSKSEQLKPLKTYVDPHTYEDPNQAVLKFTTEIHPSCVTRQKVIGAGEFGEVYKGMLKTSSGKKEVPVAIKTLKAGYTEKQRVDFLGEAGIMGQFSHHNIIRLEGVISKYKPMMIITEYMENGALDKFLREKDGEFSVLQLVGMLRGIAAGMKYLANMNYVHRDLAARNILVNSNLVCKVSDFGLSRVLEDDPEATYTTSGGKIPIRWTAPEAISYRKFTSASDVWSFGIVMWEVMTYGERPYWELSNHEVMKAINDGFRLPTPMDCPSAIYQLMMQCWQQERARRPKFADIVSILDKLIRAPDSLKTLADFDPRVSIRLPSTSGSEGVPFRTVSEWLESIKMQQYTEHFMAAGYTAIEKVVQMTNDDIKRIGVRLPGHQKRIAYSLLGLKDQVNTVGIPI

## CC(C)C[C@H](NC(=O)[C@H](Cc1c[nH]c2ccccc12)NC(=O)[C@H](C)NC(=O)CNC(=O)[C@@H](N)CSSC[C@H](N)C(=O)NCC(=O)N[C@@H](C)C(=O)N[C@@H](Cc1c[nH]c2ccccc12)C(=O)N[C@@H](CC(C)C)C(=O)N[C@@H](C)C(=O)N[C@@H](Cc1ccc(O)cc1)C(=O)N1CCC[C@H]1C(=O)N[C@@H](CC(=O)O)C(=O)N[C@@H](CO)C(=O)N[C@H](C(=O)N1CCC[C@H]1C(=O)N[C@@H](Cc1ccc(O)cc1)C(=O)N[C@@H](CCCNC(=N)N)C(=O)N1CCC[C@H]1C(=O)N[C@@H](CCCCN)C(=O)O)C(C)C)C(=O)N[C@@H](C)C(=O)N[C@@H](Cc1ccc(O)cc1)C(=O)N1CCC[C@H]1C(=O)N[C@@H](CC(=O)O)C(=O)N[C@@H](CO)C(=O)N[C@H](C(=O)N1CCC[C@H]1C(=O)N[C@@H](Cc1ccc(O)cc1)C(=O)N[C@@H](CCCNC(=N)N)C(=O)N1CCC[C@H]1C(=O)N[C@@H](CCCCN)C(=O)O)C(C)C [compound 5, CGA-WLA-YRPK dimer (N-ter)]
EphA2 LBD
  Kd: 380 ± 80 nM
EphA2 LBD; Table 3
  N (binding stoichiometry by ITC): N = 2.2 ± 0.2
EphA2 LBD; Table 3, soluble EphA2 LBD
  Kd: 21 ± 3 nM
EphA2 LBD; Table 6
  -TΔS: 21.93 ± 0.31 kcal/mol
EphA2 LBD; Table 6, binding stoichiometry
  N: 2.2 ± 0.2
EphA2 LBD; Table 6, change in Gibbs energy
  ΔG: -10.41 ± 0.10 kcal/mol
EphA2 LBD; Table 6, change in enthalpy
  ΔH: -32.34 ± 0.21 kcal/mol
[1]; DMSO, third of PBS/H2O/DMSO, read-out: Solubility in DMSO
  solubility: 15000 µg/mL (≈ 4120 µM)
[1]; PBS, Table 4, first of PBS/H20/DMSO, read-out: Solubility in PBS
  solubility: 5000 µg/mL (≈ 1370 µM)
[1]; PBS, first of PBS/H2O/DMSO, read-out: Solubility in PBS
  solubility: 5000 µg/mL (≈ 1370 µM)
[1]; water, Table 4, second of PBS/H20/DMSO, read-out: Solubility in H20
  solubility: 5000 µg/mL (≈ 1370 µM)
[1]; water, second of PBS/H2O/DMSO, read-out: Solubility in H2O
  solubility: 5000 µg/mL (≈ 1370 µM)
Other Eph receptors
  selectivity for EphA2 / binding to other Eph receptors: do not bind to other Eph receptors
EphA2; saturating peptide, HEK293 cells
  best-fit FRET oligomerization model, EphA2 WT: higher order oligomer model
EphA2; swollen HEK293 cells
  EphA2 patches on the plasma membrane, EphA2 WT: formation of fluorescent patches
